Measured values as given in patent publication US12428455B2, “Dominant negative CEBPB and CEBPD proteins and methods of use for decreasing viability of neoplastic cells” (The Trustees of Columbia University in the City of New York, priority 2018, dated 2025).
No end group written: not given here.

Legend:
[1] = test system: MDA-MB-468 breast cancer cells; test: Cell number after peptide treatment, MDA-MB-468; format: cell-based, human; conditions: 6 days, 0 μM to 50 μM; stock without BSA
Protocol: Replicate cultures of MDA-MB-468 breast cancer cells, A549 lung cancer cells and 293T transformed embryonic kidney cells were exposed to CP-DN-CEBPB or CP-DN-CEBPD, for 6 days at doses of 0 μM to 50 μM. […] Stock solutions of the peptides were prepared in buffer without added bovine serum albumin (BSA).

[2] = test system: HCT116 colon cancer cells; test: Cell number after peptide treatment, HCT116; format: cell-based; conditions: 6 days, 0 μM to 50 μM; stock without BSA
Protocol: (§1) Replicate cultures were exposed to the peptides the for 6 days at the indicated concentrations. Stock solutions of the peptides were prepared in buffer without added bovine serum albumin (BSA).
(§2) Replicate cultures of HCT116, MDA-MB 231, MCF7, and T98G cells were exposed to a 50/50 by concentration mixture of CP-DN-CEBPB and CP-DN-CEBPD for 6 days at doses of 0 μM to 50 μM. Stock solutions of the peptides were prepared in buffer without added bovine serum albumin (BSA).
(§3) Replicate cultures of T98G, HCT116, MDA-MB 231, and MCF7 cells were exposed to CP-DN-CEBPB, CP-DN-CEBPD, or a CP-DN-CEBPD in which heptad repeat leucine residues were mutated to glycine residues for 6 days at doses of 0 μM to 50 μM. Stock solutions of the peptides were prepared in buffer without added bovine serum albumin (BSA).

MDA-MB-231 cells = test: Apoptotic nuclei, propidium iodide flow cytometry, MDA-MB-231; format: cell-based; conditions: 20 μM, 3 days, vs untreated cells
Protocol: MDA-MB-231, MCF7, HCT116 and T98G cancer cell lines were treated for 3 days with 20 μM CP-dn-CEBPB and CP-dn-CEBPD peptides from stock solutions prepared without additives. Cultures were stained with propidium iodide and assessed for proportion of cells with apoptotic nuclei by flow cytometry.

[3] = test system: U251 gliblastoma multiforme cells; test: Cell number after peptide treatment, U251; format: cell-based; conditions: 6 days, 0 μM to 50 μM; stock without BSA
Protocol: as §1

T98G cells [4] = test: Combination with chloroquine, cell number, T98G; format: cell-based; conditions: 5 μM or 10 μM chloroquine and 3 μM or 10 μM peptide, 6 days
Protocol: Replicate cultures of T98G, MDA-MB 231, and HCT116 cells were treated with 5 μM or 10 μM chloroquine and 3 μM or 10 μM CP-dn-CEBPB and CP-dn-CEBPD peptides, maintained for 6 days, and then assessed for cell number. The bar graphs of FIGS. 29A (T98G, CP-dn-CEBPB), 29C (T98G, CP-dn-CEBPBD, 29E (MDA-MB-231, CP-dn-CEBPBD), 29G (MDA-MB-231, CP-dn-CEBPD), 29I (HCT116, CP-dn-CEBPBB), and 26K (HCT116, CP-dn-CEBPBD) show relative cell numbers for each condition as compared to untreated controls. The line graphs of FIGS. 26B (T98G, CP-dn-CEBPB), 26D (T98G, CP-dn-CEBPBD), 26F (MDA-MB-231, CP-dn-CEBPB), 26H (MDA-MB-231, CP-dn-CEBPD), 26J (HCT116, CP-dn-CEBPB), and 26L (HCT116 CP-dn-CEBPBD) show the response as normalized in each case so that 100 represents the relative number of surviving cells that received the indicated level of chloroquine, but no peptide treatment. The results ranged from near-additive (HCT116 cells, CI=0.92±0.08 for CP-dn-CEBPB and 0.87±0.07 for CP-dn-CEBPD) to apparent synergy (T98G, CI=0.56±0.06 for CP-dn-CEBPB and 0.75±0.03 for CP-dn-CEBPD; MDA-MB-261, CI=0.59±0.11 for CP-dn-CEBPB and 0.47±0.05 for CP-dn-CEBPD).

T98G cells [5] = test: Colony forming activity in soft agar, T98G; format: cell-based; conditions: 6 days; doses 0.05, 0.5 and 5 μM
Protocol: T98G (FIG. 21A), MDA-MB 231 (FIG. 21B), and HCT116 (FIG. 21C) cells were exposed to CP-DN-CEBPB and CP-DN-CEBPD for 6 days at doses of 0.05 μM 0.5 μM, and 5 μM while growing in soft agar. Growth was inhibited by does as low as 0.5 μM. T98G (FIG. 21D), MDA-MB 231 (FIG. 21E), and HCT116 (FIG. 21F) cells were exposed to CP-DN-CEBPB and CP-DN-CEBPD for 6 days at doses of 0.05 μM 0.5 μM, and 5 μM while growing on culture plates. Growth was inhibited by does as low as 0.5 μM.

MCF7 cells = test: Combination with paclitaxel, cell number, MCF7; format: cell-based; conditions: 1 nM or 5 nM paclitaxel and 3, 10 or 20 μM peptide, 6 days
Protocol: Replicate cultures of T98G, MDA-MB 231, and MCF7 cells were treated with 1 nM or 5 nM paclitaxel and 3 μM, 10 μM, or 20 μM CP-dn-CEBPB and CP-dn-CEBPD peptides, maintained for 6 days, and then assessed for cell number. The bar graphs of FIGS. 26A (T98G, CP-dn-CEBPB), 26C (T98G, CP-dn-CEBPBD, 26E (MDA-MB-231, CP-dn-CEBPBD), 26G (MDA-MB-231, CP-dn-CEBPD), 26I (MCF7, CP-dn-CEBPBB), and 26K (MCF7, CP-dn-CEBPBD) show relative cell numbers for each condition as compared to untreated controls. The line graphs of FIGS. 26B (T98G, CP-dn-CEBPB), 26D (T98G, CP-dn-CEBPBD), 26F (MDA-MB-231, CP-dn-CEBPB), 26H (MDA-MB-231, CP-dn-CEBPD), 26J (MCF7, CP-dn-CEBPB), and 26L (MCF7 CP-dn-CEBPBD) show the response as normalized in each case so that 100 represents the relative number of surviving cells that received the indicated level of paclitaxel, but no peptide treatment. Calculated combination indices (CI) were as follows: MCF7: CI=0.41±0.04 for CP-dn-CEBPB; 0.44±0.04 for CP-dn-CEBPD; MDA-MB-231: 0.74±0.03 for CP-dn-CEBPB; 0.74±0.05 for CP-dn-CEBPD; T98G: CI=0.84±0.06 for CP-dn-CEBPB and 0.75±0.07 for CP-dn-CEBPD.

MCF7 breast cancer cells = test: Cell number after peptide treatment, MCF7; format: cell-based; conditions: 6 days, 0 μM to 50 μM; stock without BSA
Protocol: as §1, §2, §3

normal human astrocytes = test: Survival after peptide treatment, astrocytes; format: cell-based; conditions: 6 days, 0 μM to 50 μM; stock without BSA
Protocol: Replicate cultures of HIEC-6 non-cancer human intestinal epithelial cells, MCF10A non-cancer human breast epithelial cells, or normal human astrocytes were exposed to CP-DN-CEBPB or CP-DN-CEBPD, for 6 days at doses of 0 μM to 50 μM. […] Stock solutions of the peptides were prepared in buffer without added bovine serum albumin (BSA).

Sequence | number of MDA-MB-468 cells [1] | growth and survival / numbers of HCT116 cells [2] | proportion of cells with apoptotic nuclei (MDA-MB-231 cells) | growth and survival of U251 cells [3] | CI with chloroquine (T98G cells [4]) | lowest dose at which growth was inhibited, soft agar (T98G cells [5]) | combination index (CI) with paclitaxel (MCF7 cells) | growth and survival / numbers of MCF7 cells (MCF7 breast cancer cells) | survival of astrocytes (normal human astrocytes)
RQIKIWFQNRRMKWKKLETQHKVLELTAENERLQKKVEQLSRELSTLRNLFKQL [CP-DN-CEBPB] | dose-dependent decrease in the number | decrease in growth and survival | increased apoptotic cell death | decrease in growth and survival | 0.56±0.06 | 0.5 µM | 0.41±0.04 | decrease in growth and survival | neither CP-DN-CEBPB or CP-DN-CEBPD affected survival of astrocyte
RQIKIWFQNRRMKWKKLVELSAENEKLHQRVEQLTRDLAGLRQFFK [CP-DN-CEBPD] | dose-dependent decrease in the number | decrease in growth and survival | increased apoptotic cell death | decrease in growth and survival | 0.75±0.03 | 0.5 µM | 0.44±0.04 | decrease in growth and survival | neither CP-DN-CEBPB or CP-DN-CEBPD affected survival of astrocyte
